Values after ≈ are worked out from the molar mass of the structure shown. Read-outs that look alike come from different tables or passages of the source. Marks after values point to notes of the source that are not given here.
Key:
[1] = DPPH free radical scavenging assay
[2] = ABTS free radical scavenging assay
[3] = FRAP ferric reducing power assay
[4] = TRC (total reducing capacity) ferric reducing power assay; settings: L-ascorbic acid equivalents
[5] = target: T1, α-amylase from porcine pancreas (Sus scrofa, UniProt P00690); test: biochemical
T1 construct: purchased Merck KGaA (Darmstadt, Germany) type VI-B (catalogue number not given); host or cells: porcine pancreas
T1 sequence (P00690 16-511): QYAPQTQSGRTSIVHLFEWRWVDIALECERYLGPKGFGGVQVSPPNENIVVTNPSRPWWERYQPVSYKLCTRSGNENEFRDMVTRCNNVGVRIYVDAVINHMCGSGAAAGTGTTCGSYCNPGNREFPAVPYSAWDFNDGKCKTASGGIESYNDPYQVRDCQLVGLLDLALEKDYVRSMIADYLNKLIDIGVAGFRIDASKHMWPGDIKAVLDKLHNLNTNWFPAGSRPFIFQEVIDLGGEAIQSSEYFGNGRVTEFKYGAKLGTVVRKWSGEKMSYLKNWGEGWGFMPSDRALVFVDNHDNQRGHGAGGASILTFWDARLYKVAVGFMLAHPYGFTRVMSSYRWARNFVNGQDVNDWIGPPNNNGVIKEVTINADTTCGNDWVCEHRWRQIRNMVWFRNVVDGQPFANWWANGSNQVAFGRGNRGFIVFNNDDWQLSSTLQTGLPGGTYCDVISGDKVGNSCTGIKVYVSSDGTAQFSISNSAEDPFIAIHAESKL

[6] = target: α-glucosidase from bakers’ yeast (Saccharomyces cerevisiae, UniProt P53341); type: biochemical
[7] = target: acetylcholinesterase (AChE) from Electrophorus electricus (Electrophorus electricus, UniProt O42275); test: biochemical
[8] = target: butyrylcholinesterase (BChE) from equine serum (Equus caballus, UniProt P81908); test: biochemical; type: biochemical
[9] = test system: Staphylococcus aureus ATCC 6538; test: Broth microdilution MIC; type: cell-based; settings: 24 h, extracts 62.5–1000, compounds 31.25–500 µg/mL tested
[10] = test system: Enterococcus faecalis ATCC 29212; test: Broth microdilution MIC; type: cell-based; settings: 24 h
[11] = test system: Bacillus subtilis ATCC 6633; test: Broth microdilution MIC; type: cell-based; settings: 24 h
[12] = test system: Escherichia coli ATCC 8739; test: Broth microdilution MIC; type: cell-based; settings: 24 h
[13] = test system: Klebsiella pneumoniae NCIMB 9111; test: Broth microdilution MIC; type: cell-based; settings: 24 h
[14] = test system: Salmonella abony NCTC 6017; test: Broth microdilution MIC; type: cell-based
[15] = test system: Pseudomonas aeruginosa ATCC 9027; test: Broth microdilution MIC; type: cell-based; settings: 24 h
[16] = test system: Candida albicans ATCC 10231; test: Broth microdilution MIC; type: cell-based; settings: 48 h
[17] = concentrations 50–1000 µg/mL; ref Jeong et al. (2010) [24]; cited from earlier work
[18] = target: α-amylase; settings: ref Jeong et al. (2012) [29], cited from earlier work
[19] = target: α-glucosidase; settings: cited from earlier work
[20] = test system: clinical isolates of both Gram-positive and Gram-negative bacteria; design: method as in Alves et al. (2013) [45]; settings: ref Alves et al. (2013) [45]; cited from earlier work
[21] = test system: methicillin-resistant Staphylococcus aureus (MRSA); settings: ref Alves et al. (2013) [45]; cited from earlier work

α-glucosidase from bakers’ yeast, sequence (P53341 whole entry, looked up): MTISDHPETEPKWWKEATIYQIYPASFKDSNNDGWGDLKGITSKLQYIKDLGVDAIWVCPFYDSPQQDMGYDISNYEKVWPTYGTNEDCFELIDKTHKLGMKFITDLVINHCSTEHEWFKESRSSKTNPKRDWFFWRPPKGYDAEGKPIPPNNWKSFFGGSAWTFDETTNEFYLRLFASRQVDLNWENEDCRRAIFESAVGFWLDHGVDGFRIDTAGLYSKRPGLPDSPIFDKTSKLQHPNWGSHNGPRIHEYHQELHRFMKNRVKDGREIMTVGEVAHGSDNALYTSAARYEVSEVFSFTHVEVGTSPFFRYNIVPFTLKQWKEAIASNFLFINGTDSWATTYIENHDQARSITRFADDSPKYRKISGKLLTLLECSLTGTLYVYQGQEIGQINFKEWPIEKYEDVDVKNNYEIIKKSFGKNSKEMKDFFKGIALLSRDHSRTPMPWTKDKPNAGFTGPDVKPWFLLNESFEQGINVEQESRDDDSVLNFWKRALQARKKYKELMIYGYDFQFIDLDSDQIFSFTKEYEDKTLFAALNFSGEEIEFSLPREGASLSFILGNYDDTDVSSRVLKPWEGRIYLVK
acetylcholinesterase (AChE) from Electrophorus electricus, sequence (O42275 24-633 limits assumed): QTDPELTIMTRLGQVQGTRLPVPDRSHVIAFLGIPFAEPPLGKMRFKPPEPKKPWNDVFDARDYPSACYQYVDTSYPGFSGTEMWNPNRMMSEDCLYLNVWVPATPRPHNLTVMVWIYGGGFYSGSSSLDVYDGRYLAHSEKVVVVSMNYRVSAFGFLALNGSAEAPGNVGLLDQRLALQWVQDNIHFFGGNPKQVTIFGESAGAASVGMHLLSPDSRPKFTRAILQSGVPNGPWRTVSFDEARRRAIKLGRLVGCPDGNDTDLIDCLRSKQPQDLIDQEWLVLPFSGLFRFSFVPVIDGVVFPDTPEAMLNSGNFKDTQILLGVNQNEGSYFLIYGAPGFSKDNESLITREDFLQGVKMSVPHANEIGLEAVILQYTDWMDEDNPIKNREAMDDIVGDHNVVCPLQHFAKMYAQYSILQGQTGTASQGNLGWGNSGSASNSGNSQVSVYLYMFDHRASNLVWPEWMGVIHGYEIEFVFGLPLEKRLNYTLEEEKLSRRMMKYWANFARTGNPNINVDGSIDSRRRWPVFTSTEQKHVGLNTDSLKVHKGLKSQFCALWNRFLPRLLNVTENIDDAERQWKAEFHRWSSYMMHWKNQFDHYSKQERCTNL
butyrylcholinesterase (BChE) from equine serum, sequence (P81908 whole entry, looked up): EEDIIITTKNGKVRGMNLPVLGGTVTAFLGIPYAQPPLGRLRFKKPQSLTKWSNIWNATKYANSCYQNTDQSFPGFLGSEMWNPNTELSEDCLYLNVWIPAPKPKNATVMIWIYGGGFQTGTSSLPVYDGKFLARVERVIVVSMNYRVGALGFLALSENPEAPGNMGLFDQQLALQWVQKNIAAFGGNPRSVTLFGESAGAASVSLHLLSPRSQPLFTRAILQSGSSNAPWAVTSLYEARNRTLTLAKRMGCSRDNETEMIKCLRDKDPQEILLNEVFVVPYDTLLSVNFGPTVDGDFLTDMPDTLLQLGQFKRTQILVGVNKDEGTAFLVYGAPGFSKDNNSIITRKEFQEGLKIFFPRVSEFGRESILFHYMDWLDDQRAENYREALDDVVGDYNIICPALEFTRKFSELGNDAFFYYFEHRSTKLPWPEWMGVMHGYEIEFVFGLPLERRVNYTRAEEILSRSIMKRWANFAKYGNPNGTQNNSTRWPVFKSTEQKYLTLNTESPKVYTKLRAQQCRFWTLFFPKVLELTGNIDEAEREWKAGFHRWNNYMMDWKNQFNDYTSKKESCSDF

## COc1cc(/C=C/C(=O)O)ccc1O [FA, ferulic acid]
[1]
  DPPH IC50: 0.0068 ± 0.0001 ^c mg/mL
[2]
  ABTS IC50: 0.0034 ± 0.0001 ^d mg/mL
[3]
  FRAP: 2.02 ± 0.04 ^a µmol Fe^2+/g
[3]; listed as ferulic acid
  FRAP: 2.02 µmol Fe^2+/g
[4]
  TRC: 2467.90 ± 91.26 ^a mg L-AAE/g
[4]; listed as ferulic acid
  TRC: 2467.90 mg L-AAE/g
[5]
  α-amilase IC50: 3.35 ± 0.85 ^b mg/mL
[6]
  α-glucosidase IC50: 1.49 ± 0.18 ^a mg/mL
[7]
  AChE IC50: 4.10 ± 0.37 ^c mg/mL
[8]
  BChE IC50: 1.97 ± 0.08 ^c mg/mL
[9]
  Minimal Inhibitory Concentrations MICs: 62.5 µg/mL
[10]
  Minimal Inhibitory Concentrations MICs: 125 µg/mL
[11]
  Minimal Inhibitory Concentrations MICs: 62.5 µg/mL
[12]
  Minimal Inhibitory Concentrations MICs: >500 µg/mL
[13]
  Minimal Inhibitory Concentrations MICs: >500 µg/mL
[14]
  Minimal Inhibitory Concentrations MICs: >500 µg/mL
[15]
  Minimal Inhibitory Concentrations MICs: >500 µg/mL
[16]
  Minimal Inhibitory Concentrations MICs: >500 µg/mL
[17]
  DPPH radical inhibition: 84.3–92.3%
[18]; mg/mL figure given in parentheses beside mM
  α-amylase IC50: 1840 µg/mL
[18]
  IC50: 9.5 mM
[19]; mg/mL figure given in parentheses beside mM, ref Jeong et al. (2012) [29]
  α-glucosidase IC50: 950 µg/mL
[19]; ref Jeong et al. (2012) [29]
  IC50: 4.9 mM
[19]; ref Nile and Park (2014) [34]
  α-glucosidase IC50: 251.4 µg/mL
[20]
  MIC: ≥ 1000 µg/mL
[21]
  MIC: 500 µg/mL (≈ 2.57 mM)

Source: article PMC11820700, “Antioxidant, Enzyme-Inhibitory and Antimicrobial Activity of Underutilized Wheat and Maize Crop Residues” (Plants, 2025)
